Where “and” joins values, the source holds several entries; their conditions need not be identical. Equal entries are not always repeated. Where two headings read alike, the source gives them in different places.
Tests used:
[1] = test system: Alternaria solani (F129L); experiment: Micro titer plate test against early blight (ALTESO F129L); format: cell-based; conditions: 0.016 ppm, 7 days after inoculation, relative to compound-free control (100%)
[2] = test system: Cercospora sojina; format: cell-based; conditions: 4 ppm, 7 days after inoculation, relative to compound-free control (100%)
[3] = test system: Alternaria solani (wt); format: cell-based
[4] = test system: Septoria tritici; experiment: Micro titer plate test against leaf blotch on wheat (SEPTTR); format: cell-based
[5] = test system: Phakopsora pachyrhizi (F129L); experiment: Protective control of soybean rust on soybeans (PHAKPA P6); format: in vivo
[6] = test system: Colletotrichum orbiculare; experiment: Micro titer plate test against anthracnose (COLLLA); format: cell-based; conditions: 0.063 ppm, 7 days after inoculation, relative to compound-free control (100%)
[7] = test system: Pyrenophora teres (wt); experiment: Micro titer plate test against net blotch on barley (PYRNTE wt); format: cell-based; conditions: 0.25 ppm, 7 days after inoculation, relative to compound-free control (100%)
[8] = test system: Leptosphaeria nodorum; experiment: Micro titer plate test against wheat leaf spots (LEPTNO); format: cell-based; conditions: 0.063 ppm, 7 days after inoculation, relative to compound-free control (100%)
[9] = test system: Microdochium nivale; format: cell-based; conditions: 0.016 ppm, 7 days after inoculation, relative to compound-free control (100%)
[10] = test system: Phakopsora pachyrhizi (F129L); experiment: Protective control of soybean rust on soybeans (PHAKPA P2); format: in vivo; conditions: for PHAKPA (F129L) Disease level (%) P2 at 4 ppm: protective, inoculation 2 days after spraying, % diseased leaf area
[11] = test system: Phakopsora pachyrhizi (F129L); experiment: Protective control of soybean rust on detached soybean leaves (PHAKPA P1 DL), F129L isolate; format: in vivo
[12] = test system: Phakopsora pachyrhizi (wt); experiment: Protective control of soybean rust on detached soybean leaves (PHAKPA P1 DL), Qo inhibitor-sensitive wt isolate; format: in vivo
[13] = 0.016 ppm, 7 days after inoculation, relative to compound-free control (100%)
[14] = 0.25 ppm, 7 days after inoculation, relative to compound-free control (100%)

Structure (SMILES): CNC(=O)/C(=N/OC)c1cccc(C)c1CO/N=C(\SC)c1cccc(C(F)(F)F)c1
- Fungal growth (%) ALTESO F129L [1]: 85%
- Fungal growth (%) CERCSO [2]: 66%

Structure (SMILES): CO/N=C(/C(=O)OC)c1cccc(C)c1CO/N=C(\OC)c1cccc(C)c1
- Fungal growth (%) ALTESO F129L [1]: 81%
- Fungal growth (%) CERCSO [2]: 67%
- Fungal growth (%) ALTESO wt [3, 13]: 93%

Structure (SMILES): CNC(=O)/C(=N/OC)c1cccc(C)c1CO/N=C(\OC)c1cccc(C)c1
- Fungal growth (%) ALTESO F129L [1]: 95%
- Fungal growth (%) SEPTTR [4, 14]: 100%
- Fungal growth (%) ALTESO wt [3, 13]: 93%

Structure (SMILES): CNC(=O)/C(=N/OC)c1cccc(C)c1CO/N=C(/c1cccc(C)c1)C1CC1
- Fungal growth (%) ALTESO F129L [1]: 93%
- Fungal growth (%) SEPTTR [4, 14]: 87%
- Fungal growth (%) ALTESO wt [3, 13]: 89%

Structure (SMILES): CNC(=O)/C(=N/OC)c1cccc(C)c1CO/N=C(\C)c1cccc(C(F)(F)F)c1 [compound 8]
- Fungal growth (%) ALTESO F129L ([1]; listed as Ex. 8): 55% and 52%
- Fungal growth (%) SEPTTR [4]: 57%
- Fungal growth (%) ALTESO wt [3]: 56%

Structure (SMILES): CO/N=C(/C(=O)OC)c1cccc(C)c1CO/N=C(\C)c1cccc(C(F)(F)F)c1 [compound 9]
- Fungal growth (%) CERCSO [2]: 11%
- Fungal growth (%) ALTESO wt [3, 13]: 73%
- PHAKPA (F129L) Disease level (%) P6 at 16 ppm ([5]; protective, inoculation six days after spraying, % diseased leaf area, listed as Ex. 9): 4% and 1%

Structure (SMILES): CO/N=C(/C(=O)OC)c1cccc(C)c1CO/N=C(\C)c1cccc(C)c1 [compound 76]
- Fungal growth (%) ALTESO F129L [1]: 37%
- Fungal growth (%) SEPTTR [4, 14]: 0%
- Fungal growth (%) CERCSO [2]: 28%
- Fungal growth (%) ALTESO wt [3, 13]: 55%
- PHAKPA (F129L) Disease level (%) P6 at 16 ppm ([5]; protective, inoculation six days after spraying, % diseased leaf area, listed as Ex. 76): 0% and 4%

Structure (SMILES): CO/N=C(/C(=O)OC)c1cccc(C)c1CO/N=C(\C)c1cccc(Cl)c1 [compound 153]
- Fungal growth (%) ALTESO F129L [1]: 68%
- Fungal growth (%) SEPTTR [4, 14]: 0%
- Fungal growth (%) COLLLA [6]: 55%
- Fungal growth (%) CERCSO [2]: 26%
- Fungal growth (%) PYRNTE wt [7]: 31%
- Fungal growth (%) LEPTNO [8]: 55%
- Fungal growth (%) ALTESO wt [3, 13]: 71%
- PHAKPA (F129L) Disease level (%) P6 at 16 ppm ([5]; protective, inoculation six days after spraying, % diseased leaf area, listed as Ex. 153): 1% and 5%
- Fungal growth (%) MONGNI [9]: 75%

Structure (SMILES): CNC(=O)/C(=N/OC)c1cccc(C)c1CO/N=C(\C)c1cccc(Cl)c1 [compound 157]
- PHAKPA (F129L) Disease level (%) P2 at 4 ppm ([10]; listed as Ex. 157): 0% and 1%
- Fungal growth (%) ALTESO F129L [1]: 57%
- Fungal growth (%) SEPTTR [4, 14]: 20%
- Fungal growth (%) COLLLA [6]: 63%
- Fungal growth (%) CERCSO [2]: 36%
- Fungal growth (%) PYRNTE wt [7]: 54%
- Fungal growth (%) ALTESO wt [3, 14]: 27%
- Fungal growth (%) MONGNI [9]: 56%

Structure (SMILES): CNC(=O)/C(=N/OC)c1cccc(C)c1CO/N=C(\C)c1ccc(Cl)cc1 [compound 158]
- % PHAKPA (F129L) Disease level P2 at 4 ppm ([10]; protective P2, 4 ppm, soybean rust F129L isolate): 0%
- % PHAKPA (F129L) Disease level P2 at 16 ppm ([10]; protective P2, 16 ppm, soybean rust F129L isolate): 0%
- PHAKPA (F129L) Disease level (%) P2 at 4 ppm [10]: 1%
- PHAKPA P1 DL Disease level (%) Qo I-resistant F129L isolate (100 % F129L) ([11]; test concentration 0.3 ppm): 87%
- PHAKPA P1 DL Disease level (%) Qo I-resistant F129L isolate (100 % F129L) ([11]; test concentration 1 ppm): 57%
- PHAKPA P1 DL Disease level (%) Qo I-resistant F129L isolate (100 % F129L) ([11]; test concentration 3 ppm): 8%
- PHAKPA P1 DL Disease level (%) Qo I-resistant F129L isolate (100 % F129L) ([11]; test concentration 10 ppm): 2%
- PHAKPA P1 DL Disease level (%) Qo I-resistant F129L isolate (100 % F129L) ([11]; test concentration 30 ppm): 4%
- PHAKPA P1 DL Disease level (%) Qo I-resistant F129L isolate (100 % F129L) ([11]; test concentration 100 ppm): 4%
- PHAKPA P1 DL Disease level (%) Qo I-resistant F129L isolate (100 % F129L) ([11]; test concentration 300 ppm): 5%
- PHAKPA P1 DL Disease level (%) Qo I-sensitive wt isolate (0 % F129L) ([12]; test concentration 0.3 ppm): 38%
- PHAKPA P1 DL Disease level (%) Qo I-sensitive wt isolate (0 % F129L) ([12]; test concentration 1 ppm): 7%
- PHAKPA P1 DL Disease level (%) Qo I-sensitive wt isolate (0 % F129L) ([12]; test concentration 3 ppm): 2%
- PHAKPA P1 DL Disease level (%) Qo I-sensitive wt isolate (0 % F129L) ([12]; test concentration 10 ppm): 1%
- PHAKPA P1 DL Disease level (%) Qo I-sensitive wt isolate (0 % F129L) ([12]; test concentration 30 ppm): 4%
- PHAKPA P1 DL Disease level (%) Qo I-sensitive wt isolate (0 % F129L) ([12]; test concentration 100 ppm): 5%
- PHAKPA P1 DL Disease level (%) Qo I-sensitive wt isolate (0 % F129L) ([12]; test concentration 300 ppm): 4%
- Fungal growth (%) ALTESO F129L [1]: 79%
- Fungal growth (%) ALTESO wt [3, 13]: 66%
- % PHAKPA (F129L) Disease level P6 at 4 ppm ([5]; protective P6, 4 ppm, soybean rust F129L isolate): 2%
- % PHAKPA (F129L) Disease level P6 at 16 ppm ([5]; protective P6, 16 ppm, soybean rust F129L isolate): 0%
- PHAKPA (F129L) Disease level (%) P6 at 4 ppm ([5]; protective, inoculation six days after spraying, 4 ppm, % diseased leaf area): 4%
- Fungal growth (%) MONGNI [9]: 71%

Structure (SMILES): Cc1cccc(-n2nnn(C)c2=O)c1COc1ccn(-c2ccc(Cl)cc2)n1 [drawing 930]
- Fungal growth (%) ALTESO F129L [1]: 100%
- Fungal growth (%) ALTESO wt [3, 13]: 98%
- Fungal growth (%) MONGNI [9]: 97%

Structure (SMILES): CO/N=C(/C(=O)OC)c1cccc(C)c1CO/N=C(\C)c1cccc(OC(F)(F)F)c1 [drawing 936]
- Fungal growth (%) CERCSO [2]: 33%
- Fungal growth (%) ALTESO wt [3, 13]: 94%

Structure (SMILES): CNC(=O)/C(=N/OC)c1cccc(C)c1CO/N=C(\OC)c1cccc(C(F)(F)F)c1 [drawing 948]
- Fungal growth (%) ALTESO F129L [1]: 87%
- Fungal growth (%) SEPTTR [4, 14]: 77%
- Fungal growth (%) ALTESO wt [3, 13]: 100%

Structure (SMILES): CO/N=C(/C(=O)OC)c1cccc(C)c1CO/N=C(\SC)c1cccc(C)c1 [drawing 952]
- Fungal growth (%) SEPTTR [4, 14]: 61%

Structure (SMILES): CO/N=C(/C(=O)OC)c1cccc(C)c1CO/N=C(/c1cccc(C)c1)C1CC1 [drawing 953]
- Fungal growth (%) SEPTTR [4, 14]: 89%

Structure (SMILES): CO/N=C(/C(=O)OC)c1cccc(C)c1CO/N=C(\SC)c1cccc(C)c1 [drawing 955]
- Fungal growth (%) ALTESO F129L [1]: 66%
- Fungal growth (%) CERCSO [2]: 71%
- Fungal growth (%) ALTESO wt [3, 13]: 67%

Structure (SMILES): CO/N=C(/C(=O)OC)c1cccc(C)c1CO/N=C(/c1cccc(C)c1)C1CC1 [drawing 957]
- Fungal growth (%) ALTESO F129L [1]: 87%
- Fungal growth (%) CERCSO [2]: 87%
- Fungal growth (%) ALTESO wt [3, 13]: 100%

Structure (SMILES): CO/N=C(/C(=O)OC)c1cccc(C)c1CO/N=C(\SC)c1cccc(Cl)c1 [drawing 962]
- Fungal growth (%) ALTESO F129L [1]: 100%
- Fungal growth (%) SEPTTR [4, 14]: 39%
- Fungal growth (%) ALTESO wt [3, 13]: 94%

Structure (SMILES): CO/N=C(/C(=O)OC)c1cccc(C)c1CO/N=C(/c1cccc(Cl)c1)C1CC1 [drawing 963]
- Fungal growth (%) ALTESO F129L [1]: 89%
- Fungal growth (%) SEPTTR [4, 14]: 39%
- Fungal growth (%) ALTESO wt [3, 13]: 81%

Structure (SMILES): CO/N=C(/C(=O)OC)c1cccc(C)c1CO/N=C(\SC)c1cccc(Cl)c1 [drawing 965]
- Fungal growth (%) CERCSO [2]: 62%

Structure (SMILES): CO/N=C(/C(=O)OC)c1cccc(C)c1CO/N=C(/c1cccc(Cl)c1)C1CC1 [drawing 966]
- Fungal growth (%) CERCSO [2]: 61%

Structure (SMILES): CNC(=O)/C(=N/OC)c1cccc(C)c1CO/N=C(\SC)c1cccc(Cl)c1 [drawing 968]
- Fungal growth (%) ALTESO F129L [1]: 90%
- Fungal growth (%) SEPTTR [4, 14]: 59%
- Fungal growth (%) ALTESO wt [3, 14]: 43%

Structure (SMILES): CNC(=O)/C(=N/OC)c1cccc(C)c1CO/N=C(\SC)c1cccc(Cl)c1 [drawing 970]
- Fungal growth (%) CERCSO [2]: 78%
